Measurements reported in patent US20210230554A1, “GENERATION OF FUNCTIONAL BETA CELLS FROM HUMAN PLURIPOTENT STEM CELL-DERIVED ENDOCRINE PROGENITORS” (Novo Nordisk A/S, priority 2018, published 2021).

Experiments:
[1] = tested on: stem cell-derived endocrine progenitor cells; experiment: BC step 1 medium with or without Nicotinamide: BC FACS phenotype; format: cell-based, human; details: BC step 1 medium with or without 10 mM Nicotinamide, 4 days, then 2 days BC step 2; FIG. 16
Protocol: To evaluate the effect of Nicotinamide, stem cell-derived endocrine progenitor cells were differentiated in BC step 1 medium with or without Nicotinamide, followed by a culturing step in BC step 2 medium.
Cell were differentiated to endocrine progenitors and then subjected to BC step 1 medium for 4 days (BC step 1 medium comprises RPMI1640 with Glutamax, 0.1% Pen/Strep, 12% KOSR, 10 μM Alk5i, 1 μM T3, 1 μM DZNEP, 10 μg/ml heparin, 25 μM DAPT, and with or without 10 mM Nicotinamide).
Cells were then subjected to BC step 2 cell culture medium for 2 days before analysing by FACS. BC step 2 medium consisted of: RPMI1640 with Glutamax, 0.1% Pen/Strep, 12% KOSR, 50 μM GABA, 10 μM Alk5i, 1 μM T3 and 10 μM DZNEP.

[2] = tested on: endocrine progenitor cells; experiment: BC step 1 screen: flow cytometry of INS, NKX6.1 and GCG expression; format: cell-based, human; details: added on top of BC step 1 medium comprising DZNEP, Alk5i, Heparin, Nicotinamide; FIG. 3
Protocol: As a first step towards generating fully functional mature beta cells, we screened for factors to generate maximal numbers of immature INS+/NKX6.1+ cells (BC step 1 screen). […]
Compounds were screened for their ability to induce INS+, NKX6.1+ double positive immature BCs and few GCG positive cells within a 7 days period. Media change was performed daily. Cells were fixed at day 4 and day 7 of BC step 1 and analysed for INS NKX6.1 and GCG expression using flow cytometry (see Table 1 and FIG. 2). Briefly, differentiated endocrine cells were dispersed into single-cell suspension by incubation with TrypLE Express at 37° C. for 10 min. Differentiated endocrine cells were resuspended in 4% paraformaldehyde, washed in PBS followed by incubation with primary antibodies overnight and then secondary antibodies for 1 hour. The differentiated hPSCs co-expressed C-peptide+/NKX6.1+ with few cells expressing the α-cell hormone glucagon (FIG. 2). When quantified by flow cytometry, 48% of the cells co-expressed C-peptide+/NKX6-1 (FIG. 2), more than previously reported with stem cell-derived beta cells (Pagliuca et al., Cell. 2014 Oct. 9; 159(2):428-39. doi: 10.1016/j.cell.2014.09.040; Rezania et al., Nat Biotechnol. 2014 November; 32(11):1121-33. doi: 10.1038/nbt.3033. Epub 2014 Sep. 11).
Hits compounds of Table 2 have been identified in a primary screen.

[3] = tested on: hPSC-derived beta cells; experiment: Perfusion assay of dynamic human insulin secretion in vitro; format: cell-based
Protocol: Mature beta cells are functionally defined by their rapid response to elevate glucose. Secretion of human insulin by beta cells at the end of BC step 2 method with BC step 2 medium comprising 50 μM GABA, 10 μM Alk5i, 1 μM T3 was measured as repeated responses to 20 mM glucose±1 μM exendin-4 a GLP1-receptor agonist or ±the anti-diabetic sulfonylurea compound Tolbutamide within a perfusion system.
Briefly, groups of 300 hand-picked, clusters of hESC- or hiPSC-derived cell clusters were suspended with beads (Bio-Rad #150-4124) in plastic chambers of Biorep PERFUSION SYSTEM (Biorep #PERI-4.2). Under temperature and CO2-controlled conditions, the cells were perfused at 0.5 ml min−1 with a Krebs buffer. Prior to sample collection, cells were equilibrated under basal (2 mM glucose) conditions for 1 h. During perfusion cells were exposed to repeated challenges with 20 mM glucose±1 μM exendin-4 or ±100 μM Tolbutamide. At the end of perfusion, cells were exposed to cAMP-elevating agents (dbcAMP) on top of 20 mM glucose. Insulin secretion was measured by human insulin ELISA (Mercodia).

NC(=O)c1cccnc1 [Nicotinamide]
BC FACS phenotype [1]: not affected

C[C@H](NC(=O)Cc1cc(F)cc(F)c1)C(=O)NC(C(=O)OC(C)(C)C)c1ccccc1 (some centres unmarked) [DAPT]
number of INS+/NKX6.1+ cells [2]: highest number of INS+/NKX6.1+ cells

CCCCNC(=O)NS(=O)(=O)c1ccc(C)cc1 [tolbutamide]
effect on insulin secretion ([3]; day 7 of BC step 2, 20 mM glucose ± 100 μM Tolbutamide): significant additive effect

Dibutyryl-cAMP [dbcAMP]
number of INS+/NKX6.1+ cells [2]: highest number of INS+/NKX6.1+ cells

exendin-4
level of insulin secretion in the hPSC-derived beta cells ([3]; 20 mM glucose ± 1 μM exendin-4): increased the level of insulin secretion
